According to ChEMBL document CHEMBL4732064, “Structure-activity relationship studies of phenothiazine derivatives as a new class of ferroptosis inhibitors together with the therapeutic effect in an ischemic stroke model” (Eur J Med Chem, 2021):
Activity calls are given as the source filed them. The calls are words filed in the database; no cut-off is given here.

Key:
[1] = Antioxidant activity assessed as DPPH radical scavenging activity at 0.05 mM incubated for 10 mins; format: functional
HT-1080 [2] = assay: Inhibition of erastin-induced ferroptosis in human HT-1080 cells assessed as cell viability incubated for 48 hrs by MTT assay; format: functional, cell-based; conditions: HT-1080, 48 h
HT-1080 [3] = assay: Inhibition of staurosporine-induced apoptotic cell death in human HT-1080 cells assessed as cell viability at 10 uM; format: functional, cell-based
HT-29 = assay: Protection against TNFalpha/Smac-mimetic/Z-VAD-FMK-induced necroptosis in human HT-29 cells assessed as cell viability at 10 uM; format: functional, cell-based
THP-1 = assay: Protection against nigericin-induced pyroptosis in human THP-1 cells assessed as cell viability at 10 uM; format: functional, cell-based
BXPC-3 = assay: Inhibition of erastin-induced ferroptosis in human BXPC-3 cells assessed as cell viability incubated for 48 hrs by MTT assay; format: functional, cell-based; conditions: BXPC-3, 48 h
Calu-1 [4] = assay: Inhibition of erastin-induced ferroptosis in human Calu-1 cells assessed as cell viability incubated for 48 hrs by MTT assay; format: functional, cell-based; conditions: Calu-1, 48 h
[5] = target: T1, Alpha-1A adrenergic receptor (Homo sapiens) (UniProt P35348); assay: Antagonist activity at ADRA1A (unknown origin) by FLIPR assay
T1 sequence (whole entry): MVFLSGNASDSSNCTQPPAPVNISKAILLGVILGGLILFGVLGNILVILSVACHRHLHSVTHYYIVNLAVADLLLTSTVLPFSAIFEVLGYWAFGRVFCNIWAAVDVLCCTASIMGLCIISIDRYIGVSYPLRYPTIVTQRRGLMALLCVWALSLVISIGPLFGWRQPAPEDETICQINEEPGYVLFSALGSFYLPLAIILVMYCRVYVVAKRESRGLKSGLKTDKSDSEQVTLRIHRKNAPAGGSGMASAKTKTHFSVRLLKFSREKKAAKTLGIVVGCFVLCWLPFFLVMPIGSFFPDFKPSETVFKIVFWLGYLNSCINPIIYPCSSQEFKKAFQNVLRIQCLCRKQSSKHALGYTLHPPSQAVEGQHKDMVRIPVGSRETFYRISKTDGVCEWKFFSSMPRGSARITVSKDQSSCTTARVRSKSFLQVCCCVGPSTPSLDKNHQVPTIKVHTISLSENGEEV

[6] = target: T2, 5-hydroxytryptamine receptor 2C (Homo sapiens) (UniProt P28335); assay: Antagonist activity at HTR2C (unknown origin) by FLIPR assay
T2 sequence (whole entry): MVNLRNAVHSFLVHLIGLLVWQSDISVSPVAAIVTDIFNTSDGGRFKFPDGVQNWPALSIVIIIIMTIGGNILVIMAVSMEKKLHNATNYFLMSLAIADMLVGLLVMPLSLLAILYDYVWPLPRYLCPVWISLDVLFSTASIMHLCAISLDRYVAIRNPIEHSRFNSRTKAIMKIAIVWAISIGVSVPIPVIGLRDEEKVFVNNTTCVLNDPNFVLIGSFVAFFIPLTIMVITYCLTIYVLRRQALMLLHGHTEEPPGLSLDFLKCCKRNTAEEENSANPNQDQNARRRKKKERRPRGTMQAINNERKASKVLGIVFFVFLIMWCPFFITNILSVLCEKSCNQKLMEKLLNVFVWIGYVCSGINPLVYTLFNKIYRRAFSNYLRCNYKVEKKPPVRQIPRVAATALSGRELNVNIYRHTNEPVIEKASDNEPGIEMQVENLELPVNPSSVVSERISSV

[7] = target: Muscarinic acetylcholine receptor M3 (Homo sapiens) (UniProt P20309); assay: Antagonist activity at CHRM3 (unknown origin) by FLIPR assay
Sequence of Muscarinic acetylcholine receptor M3 (Homo sapiens) (P20309 whole entry, looked up): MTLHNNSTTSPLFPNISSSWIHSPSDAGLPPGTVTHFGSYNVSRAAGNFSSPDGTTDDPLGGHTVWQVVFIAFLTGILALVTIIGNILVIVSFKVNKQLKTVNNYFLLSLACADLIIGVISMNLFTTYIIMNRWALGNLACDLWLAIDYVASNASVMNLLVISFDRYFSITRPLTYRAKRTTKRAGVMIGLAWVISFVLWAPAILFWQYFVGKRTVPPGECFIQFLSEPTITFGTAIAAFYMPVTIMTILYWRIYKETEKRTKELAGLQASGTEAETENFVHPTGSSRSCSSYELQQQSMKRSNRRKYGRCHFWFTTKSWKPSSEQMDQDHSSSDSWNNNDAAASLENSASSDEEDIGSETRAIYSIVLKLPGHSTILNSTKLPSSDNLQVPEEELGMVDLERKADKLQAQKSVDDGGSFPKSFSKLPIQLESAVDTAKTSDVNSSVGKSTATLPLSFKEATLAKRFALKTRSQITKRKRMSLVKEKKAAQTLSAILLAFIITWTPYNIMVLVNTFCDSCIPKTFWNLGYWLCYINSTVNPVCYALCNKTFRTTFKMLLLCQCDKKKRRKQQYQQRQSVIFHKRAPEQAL

HT-1080 [8] = assay: Downregulation of GPX4 expression in erastin-induced human HT-1080 cell ferroptosis model at 0.01 to 1 uM after 10 hrs by Western blot analysis; format: functional; conditions: dose 0.01-1 µM
HT-1080 [9] = assay: Downregulation of GPX4 expression in erastin-induced human HT-1080 cell ferroptosis model at 1 uM after 10 hrs by Western blot analysis; format: functional
HT-1080 [10] = assay: Inhibition of xCT expression in erastin-induced human HT-1080 cell ferroptosis model at 0.01 to 1 uM after 10 hrs by Western blot analysis; format: functional; conditions: dose 0.01-1 µM
HT-1080 [11] = assay: Inhibition of ERK expression in erastin-induced human HT-1080 cell ferroptosis model at 0.01 to 1 uM after 10 hrs by Western blot analysis; format: functional; conditions: dose 0.01-1 µM
HT-1080 [12] = assay: Reduction in lipid oxidation level in erastin-induced human HT-1080 cell ferroptosis model assessed as decrease in MDA accumulation at 0.01 to 1 uM; format: functional; conditions: dose 0.01-1 µM
Calu-1 [13] = assay: Antioxidant activity in erastin-induced human Calu-1 cell ferroptosis model assessed as decrease in cytosolic ROS accumulation at 0.01 to 1 uM incubated for 8 to 24 hrs by DCFH-DA staining based assay; format: functional; conditions: dose 0.01-1 µM, time 8-24 hrs
HT-1080 [14] = assay: Antioxidant activity in erastin-induced human HT-1080 cell ferroptosis model assessed as decrease in lipid ROS accumulation at 0.01 to 1 uM incubated for 8 to 24 hrs by BODIPY 581/591 C11 staining based flow cytometric analysis; format: functional; conditions: dose 0.01-1 µM, time 8-24 hrs
HT-1080 [15] = assay: Inhibition of rotenone-induced oxidative cell death in human HT-1080 cells at 10 uM incubated for 24 hrs; format: functional, cell-based
Rattus norvegicus [16] = assay: Protective activity in Sprague-Dawley rat model of middle cerebral artery occlusion-induced ischemia-reperfusion injury assessed as decrease in cerebral infarction volume at 5 mg/kg, iv measured after 24 hrs of post reperfusion by TTC staining based assay; format: functional, organism-based
Rattus norvegicus [17] = assay: Protective activity in Sprague-Dawley rat model of middle cerebral artery occlusion-induced ischemia-reperfusion injury assessed as reduction in neurological score at 5 mg/kg, iv measured after 24 hrs of post reperfusion […]; format: functional, organism-based
Rattus norvegicus [18] = assay: Protective activity in Sprague-Dawley rat model of middle cerebral artery occlusion-induced ischemia-reperfusion injury assessed as restoration of walking ability at 5 mg/kg, iv measured after 24 hrs of post reperfusion […]; format: functional, organism-based
Rattus norvegicus [19] = assay: Protective activity in Sprague-Dawley rat model of middle cerebral artery occlusion-induced ischemia-reperfusion injury assessed as increase in GSH level at 5 mg/kg, iv measured after 24 hrs of post reperfusion […]; format: functional, organism-based
[20] = target: T3, Histone acetyltransferase type B catalytic subunit (Homo sapiens, UniProt O14929); assay: Inhibition of HAT1 (unknown origin)
T3 sequence (O14929 whole entry): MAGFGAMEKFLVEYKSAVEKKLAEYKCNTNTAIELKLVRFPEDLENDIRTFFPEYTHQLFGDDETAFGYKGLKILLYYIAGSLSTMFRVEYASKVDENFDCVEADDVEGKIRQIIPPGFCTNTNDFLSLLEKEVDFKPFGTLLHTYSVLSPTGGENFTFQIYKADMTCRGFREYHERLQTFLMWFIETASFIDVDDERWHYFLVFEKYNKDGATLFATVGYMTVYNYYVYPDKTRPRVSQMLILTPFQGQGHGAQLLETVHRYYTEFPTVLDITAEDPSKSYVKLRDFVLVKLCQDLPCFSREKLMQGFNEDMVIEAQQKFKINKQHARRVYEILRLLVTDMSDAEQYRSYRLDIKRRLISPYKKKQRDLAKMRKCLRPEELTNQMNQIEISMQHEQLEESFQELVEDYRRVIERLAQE

**Q.** What does the source list for `CC(c1ccc(N2CCN(C)CC2)cc1)c1ccc2c(c1)Nc1ccccc1S2` (stereo not drawn)?
**A.** Activity [1]: Active; EC50 (HT-1080 [2]): 0.5 nM; Activity (HT-1080 [3]): inactive; Activity (HT-29): inactive; Activity (THP-1): inactive; EC50 (BXPC-3): 2.92 nM; EC50 (Calu-1 [4]): 1.88 nM; Activity [5]: inactive; Activity [6]: inactive; Activity [7]: inactive; Activity (HT-1080 [8]): inactive; Activity (HT-1080 [9]): inactive; inhibition (HT-1080 [10]): inactive; inhibition (HT-1080 [11]): inactive; Activity (HT-1080 [12]): Active; Activity (Calu-1 [13]): Active; Activity (HT-1080 [14]): Active; inhibition (HT-1080 [15]): inactive; Activity (Rattus norvegicus [16]): Active; Activity (Rattus norvegicus [17]): Active; Activity (Rattus norvegicus [18]): Active; Activity (Rattus norvegicus [19]): Active; IC50 [20]: > 10000 nM
